Data: US6767738B1, “Method of isolating adult mammalian CNS-derived progenitor stem cells using density gradient centrifugation” (The Salk Institute for Biological Studies, priority 1999, dated 2004)

Experiments:
[1] = test system: clonal stem cells (AP14); experiment: RT-PCR analysis of p21, NeuroD, trk and p75NGFR mRNA in stem cell cultures; type: cell-based, rat
Protocol: Cell Culture. For proliferating conditions, clonal stem cells (AP14) were cultured in Dulbecco's Modified Eagles Medium/Ham's F12 (DMEM/F12, 1:1) containing N2 supplement (Gibco BRL, Gaithersburg, Md.) and 20 ng/ml rhFGF-2 (provided by A. Baird, Prizm Pharmaceuticals Inc., La Jolla, Calif.). Culture dishes (Becton Dickinsin Labware, Lincoln Park, N.J.) were coated with polyomithine and mouse laminin as previously described by Ray, et al., Proliferation, differentiation and long-term culture of primary hippocampal neurons, Proc Natl Acad Sci USA 90:3602-3606 (1993). For differentiation experiments, cells were plated into polyornithine/laminin coated glass chamber slides (Nunc, Naperville, Ill.) at a density of 2.5—103 per cm2. The cells were incubated for 24 hrs in normal N2 medium containing 20 ng/ml FGF-2, and then the medium was replaced by N2 medium containing 0.5% […] (FBS) and 0.01% DMSO (control solvent) or […] all-trans retinoic acid (Sigma, St. Louis, Mo.). For further differentiation, the medium was replaced by N2 medium containing 0.5% FBS and one of the following: sterile water (control solvent), mouse 2.55 NGF (50 ng/ml, Boehringer Mannheim, Indianapolis, Ind.), rhBDNF (20 ng/ml, Alomone Labs, Jerusalem, Israel), rhNT-3 (40 ng/ml, Genentech, South San Francisco, Calif.). The medium was replaced every two days. For inhibition of the tyrosine kinase activity of the Trk receptors, K-252a (100 nM, Calbiochem, San Diego, Calif.) was added to the medium.
Reverse Transcription-PCR Analysis. Total RNA from stem cells was isolated using RNeasy Total RNA Kits (Qiagen, Chatsworth, Calif.) according to manufacturer's instructions. Fifty nanograms of total RNA was reverse transcribed using avian myeloblastosis virus reverse transcriptase (Promega, Madison, Wis.) with random hexamers ([…]) as primers in a […] reaction mixture. For PCR amplification, two sets of specific oligonucleotide pairs ([…]) were used: one directed to the transcript of interest, and one for a constitutively expressed transcript, either ribosomal protein L27 or L27a. Reactions were performed in a […] reaction mixture containing 10 mM Tris-Cl (pH 8.4), 50 mm KCl, 1.5 mM MgC12, […] each of the four dNTPs, 2 mCi of [a-32P]dCTP and 5 units of Taq polymerase (Promega) using a thermal cycler (Perkin-Elmer, Foster City, Calif.) with a regimen of 1 min at 94° C., 2 min at 60° C. (55° C. for trk receptors) and 2 min at 72° C. for 23 cycles Fifty microliters of each reaction was analyzed by electrophoresis on 8% polyacrylamide gels followed by autoradiography. […] Under these conditions, the L27 amplification product was directly proportional to the amount of input RNA, up to 50 ng total RNA. Oligonucleotide primers used are as follows: […]

[2] = test system: low buoyancy fraction cells from hippocampus or cortex; experiment: Proliferation of low buoyancy hippocampus or cortex cells in growth medium; type: cell-based, rat; conditions: 20 ng/ml FGF-2, after 10 days
Description: Tissue dissociation and fractionation: Tissues were finely minced and digested in a solution of papain (2.5 U/ml, Worthington), DNAse (250 U/ml, Worthington), and neutral protease (1 U/ml Dispase, Boehringer) dissolved in Hanks balanced salt solution, as described in Palmer T D, Ray J, Gage F H (1995), FGF-2-Responsive Neuronal Progenitors Reside in Proliferative and Quiescent Regions of the Adult Rodent Brain. Mol Cell Neurosci 6:474-486; and Gage F H, Coates P W, Palmer T D, Kuhn H G, Fisher L J, Suhonen J O, Peterson D A, Suhr S T, Ray J (1995), Survival and differentiation of adult neuronal progenitor cells transplanted to the adult brain. Proc Natl Acad Sci USA 92:11879-11883. Cells and tissue fragments were washed 3 times with Dulbecco's Modified Eagles Medium (DMEM) containing 10% […] bovine serum (defined FBS, Hyclone). Whole digested tissue was then suspended in DMEM 10% FBS, filtered through a sterile 107 μm nylon mesh and thoroughly mixed with an equal volume of PERCOLL™ (polyvinylpyrrolidone-coated silica colloids) solution. […]
Although BrdU-labeled cells fractionated to the low buoyancy population, most of the isolated cells were unlabeled, consistent with the isolation of immature, yet relatively quiescent precursors. […] Cell division was monitored by counting cells and by treating replicate cultures with BrdU at different times post plating. […]

Row | Compound | p21 mRNA ([1]; RA treatment, peaked after roughly 5 days) | trkA mRNA ([1]; following RA treatment) | trkB mRNA ([1]; following RA treatment) | trkC mRNA ([1]; following RA treatment) | p75NGFR mRNA ([1]; following RA treatment, 7-day time course) | expression of NeuroD mRNA ([1]; within 24 hrs of FGF-2 withdrawal and RA treatment, 6 days) | cells dividing in a given 24-hour period [2] | cells labeled following a 48 hour exposure to BrdU [2] [%]
1 | CC1=C(/C=C/C(C)=C/C=C/C(C)=C/C(=O)O)C(C)(C)CCC1 [RA, all-trans retinoic acid] | significant yet gradual increase | increased gradually and reached a plateau after 5 days | increased gradually and reached a plateau after 5 days | increased gradually and reached a plateau after 5 days | dramatically increased | increased and remained elevated |  | 
2 | FGF-2: basic fibroblast growth factor, human recombinant, prepared in E. coli |  |  |  |  |  |  | roughly 85% | > 99
